Source: patent US20190159450A1, “PYRIDINE-BASED COMPOUND INCLUDING ISOXAZOLINE RING AND USE THEREOF AS HERBICIDE” (MOGHU RESEARCH CENTER LTD., priority 2016, published 2019)

Legend:
Type in all cases: in vivo
[1] = system: maize; assay: Herbicidal activity test, pre-weeds emergence treatment (crop damage); details: assessed 2 to 3 weeks after spraying, scale 0-10 (0: no effect, 10: complete death)
Method: (§1) A rectangular plastic pot with a surface area of 300 cm^2 was filled with sandy loam soil and mixed soil at a ratio of 1:1, and four kinds of weeds including Quamoclit pennata, Abutilon theophrasti Medicus, and Aeschynomene indica, Xanthium strumarium were sown therein. In another pot made in the same way, three kinds of crop seeds including maize, wheat, and rice were sown. The pots were watered and one day later, a medicament was sprayed thereon. The spraying was performed by using a track sprayer (R&D Sprayer, USA) equipped with Teejet 8002EVS (Spraying Systems Co., USA) nozzle, and the spray amount was controlled to be 1000 L/ha. A spray solution was prepared by dissolving the compound of each example or a control material in acetone, and then, adding the same amount of 0.1% (v/v) tween 20 aqueous solution thereto. The spray amount was 200 g/ha. The pots were placed in a greenhouse in which the temperature was maintained at 25° C. to 30° C. during the day and 15° C. to 25° C. during the night, and was regularly watered. After 2 to 3 weeks from the spraying of the compounds or the control material, the efficacy and the damages on each weed and each crop were assessed according to the scale of 0-10 (0: no effect, 10: complete death) scale and the results are shown in Table 3 below.
(§2) Pots for crops and weeds were prepared in the same manner as the test method illustrated in Table 3, and three kinds of weeds selected from Quamoclit pennata, Abutilon theophrasti Medicus, and Aeschynomene indica, Xanthium strumarium were used.

[2] = system: rice; assay: as above; details: assessed 2 to 3 weeks after spraying, scale 0-10 (0: no effect, 10: complete death)
Method: as §1, §2

[3] = system: wheat; assay: as above; details: assessed 2 to 3 weeks after spraying, scale 0-10 (0: no effect, 10: complete death)
Method: as §1, §2

[4] = system: Abutilon theophrasti Medicus; assay: Herbicidal activity test, pre-weeds emergence treatment; details: assessed 2 to 3 weeks after spraying, scale 0-10 (0: no effect, 10: complete death)
Method: as §1, §2

[5] = system: Aeschynomene indica; assay: as above; details: assessed 2 to 3 weeks after spraying, scale 0-10 (0: no effect, 10: complete death)
Method: as §1, §2

[6] = system: Quamoclit pennata; assay: as above; details: assessed 2 to 3 weeks after spraying, scale 0-10 (0: no effect, 10: complete death)
Method: as §1, §2

[7] = system: Xanthium strumarium; assay: as above; details: assessed 2 to 3 weeks after spraying, scale 0-10 (0: no effect, 10: complete death)
Method: as §1, §2

[8] = system: maize; assay: Herbicidal activity test, post-weeds emergence treatment (crop damage); details: assessed after 2 to 3 weeks, 0: no effect, 10: complete death
Method: as §1
(§3) Pots for crops and weeds were prepared in the same manner as in Experimental Example 1, and then, when the crops and the weeds were raised up to 2 weeks roughly on a third-leaf stage, the compounds and the control material were sprayed thereon in the same manner as described above. The spray amount was 200 g/ha. After 2 to 3 weeks from the spraying of the test substance or the control substance, the efficacy and the damages on each weed and each crop were assessed according to the scale of 0-10 (0: no effect, 10: complete death) scale.
(§4) Pots for crops and weeds were prepared in the same manner as the test method illustrated in Table 5, and four kinds of weeds selected from Quamoclit pennata, Abutilon theophrasti Medicus, and Aeschynomene indica, Xanthium strumarium were used. The spray amount was 200 g/ha for crops and 50 g/ha for weeds.

[9] = system: rice; assay: as above; details: assessed after 2 to 3 weeks, 0: no effect, 10: complete death
Method: as §1, §3, §4

[10] = system: wheat; assay: as above; details: assessed after 2 to 3 weeks, 0: no effect, 10: complete death
Method: as §1, §3, §4

[11] = system: Abutilon theophrasti Medicus; assay: Herbicidal activity test, post-weeds emergence treatment; details: assessed after 2 to 3 weeks, 0: no effect, 10: complete death
Method: as §1, §3, §4

[12] = system: Aeschynomene indica; assay: as above; details: assessed after 2 to 3 weeks, 0: no effect, 10: complete death
Method: as §1, §3, §4

[13] = system: Quamoclit pennata; assay: as above; details: assessed after 2 to 3 weeks, 0: no effect, 10: complete death
Method: as §1, §3, §4

[14] = system: Xanthium strumarium; assay: as above; details: assessed after 2 to 3 weeks, 0: no effect, 10: complete death
Method: as §1, §3, §4

[15] = spray amount 200 g/ha for crops, Table 6
[16] = spray amount 50 g/ha for weeds, Table 6

SMILES: COC(=O)c1nc(C2CC(Cl)=NO2)cc(N)c1Cl (centres unmarked) [Compound 37, methyl 4-amino-3-chloro-6-(3-chloro-4,5-dihydroisoxazol-5-yl)picolinate]
- PRE ZEAMX (maize), damage score ([1]; Table 3, 200 g/ha): 0
- PRE ZEAMX (maize), damage score ([1]; Table 4, 200 g/ha): 0
- PRE ORYSA (rice), damage score ([2]; Table 3, 200 g/ha): 0
- PRE ORYSA (rice), damage score ([2]; Table 4, 200 g/ha): 1
- PRE TRZAW (wheat), damage score ([3]; Table 3, 200 g/ha): 0
- PRE TRZAW (wheat), damage score ([3]; Table 4, 200 g/ha): 0
- PRE ABUTH (Abutilon theophrasti Medicus), efficacy score ([4]; Table 3, 200 g/ha): 10
- PRE ABUTH (Abutilon theophrasti Medicus), efficacy score ([4]; Table 4, 200 g/ha): 10
- PRE AESIN (Aeschynomene indica), efficacy score ([5]; Table 3, 200 g/ha): 10
- PRE AESIN (Aeschynomene indica), efficacy score ([5]; Table 4, 200 g/ha): 10
- PRE IPOAN (Quamoclit pennata), efficacy score ([6]; Table 3, 200 g/ha): 10
- PRE IPOAN (Quamoclit pennata), efficacy score ([6]; Table 4, 200 g/ha): 7
- PRE XANST (Xanthium strumarium), efficacy score ([7]; Table 3, 200 g/ha): 10
- PRE XANST (Xanthium strumarium), efficacy score ([7]; Table 4, 200 g/ha): 10
- ZEAMX (maize) damage, scale of 0-10 [8, 15]: 0
- ZEAMX (maize) damage, scale of 0-10 ([8]; spray amount 200 g/ha, Table 5): 0
- ORYSA (rice) damage, scale of 0-10 [9, 15]: 0
- ORYSA (rice) damage, scale of 0-10 ([9]; spray amount 200 g/ha, Table 5): 1
- TRZAW (wheat) damage, scale of 0-10 [10, 15]: 0
- TRZAW (wheat) damage, scale of 0-10 ([10]; spray amount 200 g/ha, Table 5): 1
- ABUTH (Abutilon theophrasti Medicus) herbicidal efficacy, scale of 0-10 [11, 16]: 10
- ABUTH (Abutilon theophrasti Medicus) herbicidal efficacy, scale of 0-10 ([11]; spray amount 200 g/ha, Table 5): 10
- AESIN (Aeschynomene indica) herbicidal efficacy, scale of 0-10 [12, 16]: 10
- AESIN (Aeschynomene indica) herbicidal efficacy, scale of 0-10 ([12]; spray amount 200 g/ha, Table 5): 10
- IPOAN (Quamoclit pennata) herbicidal efficacy, scale of 0-10 [13, 16]: 8
- IPOAN (Quamoclit pennata) herbicidal efficacy, scale of 0-10 ([13]; spray amount 200 g/ha, Table 5): 8
- XANST (Xanthium strumarium) herbicidal efficacy, scale of 0-10 [14, 16]: 10
- XANST (Xanthium strumarium) herbicidal efficacy, scale of 0-10 ([14]; spray amount 200 g/ha, Table 5): 10

SMILES: CC(C)COC(=O)c1nc(C2CC(Br)=NO2)cc(N)c1Cl (centres unmarked) [Compound 84, isobutyl 4-amino-6-(3-bromo-4,5-dihydroisoxazol-5-yl)-3-chloropicolinate]
- PRE ZEAMX (maize), damage score ([1]; Table 4, 200 g/ha): 0
- PRE ORYSA (rice), damage score ([2]; Table 4, 200 g/ha): 1
- PRE TRZAW (wheat), damage score ([3]; Table 4, 200 g/ha): 0
- PRE ABUTH (Abutilon theophrasti Medicus), efficacy score ([4]; Table 4, 200 g/ha): 4
- PRE AESIN (Aeschynomene indica), efficacy score ([5]; Table 4, 200 g/ha): 10
- PRE IPOAN (Quamoclit pennata), efficacy score ([6]; Table 4, 200 g/ha): 5
- PRE XANST (Xanthium strumarium), efficacy score ([7]; Table 4, 200 g/ha): 10
- ZEAMX (maize) damage, scale of 0-10 [8, 15]: 0
- ORYSA (rice) damage, scale of 0-10 [9, 15]: 0
- TRZAW (wheat) damage, scale of 0-10 [10, 15]: 0
- ABUTH (Abutilon theophrasti Medicus) herbicidal efficacy, scale of 0-10 [11, 16]: 6
- AESIN (Aeschynomene indica) herbicidal efficacy, scale of 0-10 [12, 16]: 9
- IPOAN (Quamoclit pennata) herbicidal efficacy, scale of 0-10 [13, 16]: 6
- XANST (Xanthium strumarium) herbicidal efficacy, scale of 0-10 [14, 16]: 10

SMILES: COC(=O)c1nc(C2CC(Cl)=NO2)cc(NC(C)=O)c1Cl (centres unmarked) [Compound 1, methyl 4-acetamido-3-chloro-6-(3-chloro-4,5-dihydroisoxazol-5-yl)picolinate]
- PRE ZEAMX (maize), damage score ([1]; Table 3, 200 g/ha): 0
- PRE ORYSA (rice), damage score ([2]; Table 3, 200 g/ha): 0
- PRE TRZAW (wheat), damage score ([3]; Table 3, 200 g/ha): 1
- PRE ABUTH (Abutilon theophrasti Medicus), efficacy score ([4]; Table 3, 200 g/ha): 8
- PRE AESIN (Aeschynomene indica), efficacy score ([5]; Table 3, 200 g/ha): 10
- PRE IPOAN (Quamoclit pennata), efficacy score ([6]; Table 3, 200 g/ha): 9
- PRE XANST (Xanthium strumarium), efficacy score ([7]; Table 3, 200 g/ha): 9
- ZEAMX (maize) damage, scale of 0-10 ([8]; spray amount 200 g/ha, Table 5): 0
- ORYSA (rice) damage, scale of 0-10 ([9]; spray amount 200 g/ha, Table 5): 1
- TRZAW (wheat) damage, scale of 0-10 ([10]; spray amount 200 g/ha, Table 5): 1
- ABUTH (Abutilon theophrasti Medicus) herbicidal efficacy, scale of 0-10 ([11]; spray amount 200 g/ha, Table 5): 8
- AESIN (Aeschynomene indica) herbicidal efficacy, scale of 0-10 ([12]; spray amount 200 g/ha, Table 5): 10
- IPOAN (Quamoclit pennata) herbicidal efficacy, scale of 0-10 ([13]; spray amount 200 g/ha, Table 5): 8
- XANST (Xanthium strumarium) herbicidal efficacy, scale of 0-10 ([14]; spray amount 200 g/ha, Table 5): 10
